Data published in patent US6211244A, “Calcium receptor-active compounds” (priority 1995, dated 2001).
Where a name gives a salt, the structure may show the parent alone.

Assays:
[1] = system: Parathyroid Cell Calcium Receptor; test: EC50 in parathyroid cells or HEK 293/pHuPCaR4.0 cells loaded with fura-2; format: cell-based, calves and humans; conditions: parathyroid cells or HEK 293/pHuPCaR4.0, fura-2; cell type not given per value
Experimental: This section describes procedures used to obtain parathyroid cells from calves and humans, and to use the parathyroid cells to measure calcium receptor activity.
Human parathyroid glands, were obtained from patients undergoing surgical removal of parathyroid tissue for primary or uremic hyperparathyroidism (uremic HPT), and were treated similarly to bovine tissue.
Glands were trimmed of excess fat and connective tissue and then minced with fine scissors into cubes approximately 2-3 mm on a side. Dissociated parathyroid cells were prepared by collagenase digestion and then purified by centrifugation in Percoll buffer.
Primary culture also has the advantage that cells can be labeled with isotopes to near isotopic equilibrium, as is necessary for studies involving measurements of inositol phosphate metabolism.
ITS+ is a premixed solution containing insulin, transferrin, selenium, and bovine serum albumin (BSA)-linolenic acid (Collaborative Research, Bedford, Mass.). The cells were then transferred to plastic flasks (75 or 150 cm^2; Falcon) and incubated overnight at 37° C. in a humid atmosphere of 5% CO2. No serum is added to these overnight cultures, since its presence allows the cells to attach to the plastic, undergo proliferation, and dedifferentiate.
The cells were then pelleted, resuspended in the same buffer, but lacking the ester, and incubated a further 15 minutes at 37° C. The cells were subsequently washed twice with PCB containing 0.5 mM CaCl2 and 0.5% BSA and maintained at room temperature (about 20° C.). Immediately before use, the cells were diluted five-fold with prewarmed 0.5 mM CaCl2 -PCB to obtain a final BSA concentration of 0.1%. The concentration of cells in the cuvette used for fluorescence recording was 1-2×10^6 /ml.
The fluorescence of indicator-loaded cells was measured at 37° C. in a spectrofluorimeter (Biomedical Instrumentation Group, University of Pennsylvania, Philadelphia, Pa.) equipped with a thermostated cuvette holder and magnetic stirrer using excitation and emission wavelengths of 340 and 510 nm, respectively. […] To correct the calibration for dye leakage, cells were placed in the cuvette and stirred at 37° C. for 2-3 minutes. The cell suspension was then removed, the cells pelleted, and the supernatant returned to a clean cuvette. […] This estimate was subtracted from the apparent Fmin.
HEK 293 cells transfected with pHuPCaR4.0 were loaded with fura-2 by incubating the cells in Dulbecco's modified Eagle's media buffered with 20 mM HEPES containing about 5 μM […] for one hour at room temperature. Cell were then rinsed with Hank's balanced salt solution buffered with 20 mM HEPES containing 1 mM CaCl2 and 1 mM MgCl2. Compounds to be tested were then added to the cells and fluorescence was measured (excitation and emission wavelengths of 340 and 510 nm, respectively).

human calcium receptor = biological target: T1, human calcium receptor (Homo sapiens, UniProt P41180, R990G); test: increases in [Ca^2+ ]i in HEK-293 cells expressing the human calcium receptor (fura-2 loaded HEK 293/pHuPCaR4.0 cells), % activity; format: cell-based
T1 construct: expressed in transfected cells; host or cells: HEK 293
T1 sequence (P41180 20-1078 R990G): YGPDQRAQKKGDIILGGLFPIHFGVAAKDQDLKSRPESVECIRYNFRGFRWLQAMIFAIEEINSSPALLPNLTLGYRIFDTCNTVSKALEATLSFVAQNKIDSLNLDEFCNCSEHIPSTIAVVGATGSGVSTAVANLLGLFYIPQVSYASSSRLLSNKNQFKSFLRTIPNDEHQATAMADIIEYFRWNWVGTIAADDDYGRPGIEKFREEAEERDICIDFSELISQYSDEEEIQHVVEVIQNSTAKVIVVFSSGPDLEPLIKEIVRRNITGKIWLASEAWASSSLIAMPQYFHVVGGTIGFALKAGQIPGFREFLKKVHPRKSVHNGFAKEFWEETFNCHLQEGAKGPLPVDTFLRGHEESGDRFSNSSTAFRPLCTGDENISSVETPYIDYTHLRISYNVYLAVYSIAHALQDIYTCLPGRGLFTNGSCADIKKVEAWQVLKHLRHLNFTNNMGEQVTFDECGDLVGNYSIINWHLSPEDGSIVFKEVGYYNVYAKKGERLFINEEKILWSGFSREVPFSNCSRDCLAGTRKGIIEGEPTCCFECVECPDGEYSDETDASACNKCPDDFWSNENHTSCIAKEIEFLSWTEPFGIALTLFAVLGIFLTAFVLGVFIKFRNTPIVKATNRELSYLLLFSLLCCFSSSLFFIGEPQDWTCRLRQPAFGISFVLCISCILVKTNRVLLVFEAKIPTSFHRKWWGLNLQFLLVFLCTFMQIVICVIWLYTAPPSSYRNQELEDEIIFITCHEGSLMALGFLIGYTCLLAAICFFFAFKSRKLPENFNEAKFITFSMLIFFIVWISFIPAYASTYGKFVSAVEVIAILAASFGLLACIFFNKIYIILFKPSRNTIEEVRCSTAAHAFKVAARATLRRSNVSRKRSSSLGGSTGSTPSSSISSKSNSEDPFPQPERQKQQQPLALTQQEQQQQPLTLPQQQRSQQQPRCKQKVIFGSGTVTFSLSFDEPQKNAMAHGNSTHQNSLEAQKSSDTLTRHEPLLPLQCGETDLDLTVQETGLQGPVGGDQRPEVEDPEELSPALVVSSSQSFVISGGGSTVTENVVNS

Row | SMILES | EC50 [1] | % activity (human calcium receptor; 33 ng/mL) | % activity (human calcium receptor; 330 ng/mL) | % activity (human calcium receptor; 3300 ng/mL)
1 | CC(N[C@H](C)c1ccccc1)c1ccc2ccccc2c1 (stereo partly drawn) [Compound 4H, N-[1-(2-naphthyl)ethyl]-1-phenylethylamine] | ≥ 3 µM | 37% | 77% | 
2 | COc1cccc([C@@H](C)NCCCc2cccc(F)c2)c1 [Compound 4N] | 0.8 µM | 65% | 100% | 
3 | C[C@@H](NCc1ccc2ccccc2c1)c1cccc2ccccc12 [Compound 9C] | 0.6 µM | 82% | 104% | 
4 | CC(C)C(N[C@H](C)c1cccc2ccccc12)c1ccc2ccccc2c1 (stereo partly drawn) [Compound 10F] | 0.89 µM | 84% | 96% | 
5 | C[C@@H](NCCCc1ccccc1Cl)c1cccc2ccccc12 [Compound 12Z, N-3-(2-chlorophenyl)-1-propyl-(R)-1-(1-naphthyl) ethylamine hydrochloride] | 0.11 µM |  |  | 
6 | CCCOc1ccc(CN[C@H](C)c2cccc3ccccc23)cc1 [Compound 13Q] | ~0.8 µM | 46% | 95% | 
7 | C[C@@H](NCc1ccc(C(F)(F)F)cc1)c1cccc2ccccc12 [Compound 13S] | < 0.13 µM | 87% | 102% | 
8 | C[C@@H](NCc1ccc2c(c1)OCCO2)c1cccc2ccccc12 [Compound 13X] | < 0.75 µM | 65% | 102% | 
9 | COc1ccc([C@H](C)N[C@H](C)c2cccc3ccccc23)cc1 [Compound 14V] | 1.7 µM |  |  | 
10 | COc1cccc(C(C)NC(C)c2cccc3ccccc23)c1 (stereo not drawn) [Compound 14Y] | 0.38 µM | 73% | 109% | 
11 | C[C@@H](NCc1ccc(C(C)(C)C)cc1)c1cccc2ccccc12 [Compound 15G] | ~0.5 µM | 80% | 113% | 
12 | COc1ccc(CN[C@H](C)c2cccc3ccccc23)cc1C [Compound 16Q] | 0.04 µM | 88% | 110% | 
13 | COc1ccc(CN[C@H](C)c2cccc3ccccc23)cc1F [Compound 16T] | 0.04 µM | 88% | 97% | 
14 | Cc1ccc(CN[C@H](C)c2cccc3ccccc23)cc1C [Compound 16V] | < 0.13 µM | 102% | 114% | 
15 | CSc1ccc(CN[C@H](C)c2cccc3ccccc23)cc1 [Compound 16X] | 0.1 µM | 96% | 111% | 
16 | COc1ccc([C@@H](C)N[C@H](C)c2cccc3ccccc23)cc1C.Cl [Compound 17P, (R)-N-(1-(4-Methoxy-3-methylphenyl)ethyl)-(R)-1-(1-naphthyl)ethylamine hydrochloride] | 0.04 µM | 86% | 101% | 
17 | COc1ccc([C@@H](C)N[C@H](C)c2cccc3ccccc23)cc1Cl [Compound 17X, (R,R)-N-(1-Ethyl-4'-methoxy-3'-chlorophenyl)-1-(1-naphthylethyl) amine] | 0.02 µM | 93% | 105% | 
18 | COc1cccc([C@@H](C)NC2CCN(Cc3ccccc3)CC2)c1 [Compound 20F] | < 1 µM |  |  | 
19 | COc1ccc(CCCN[C@H](C)c2cccc(OC)c2)cc1 [Compound 20I] | > 1 µM | 52% | 87% | 
20 | COc1cccc([C@@H](C)NCCCc2ccc(OC)c(OC)c2)c1 [Compound 20J] | > 3 µM | 48% | 80% | 
21 | CCC(CCc1ccccc1)NC(C)c1cccc(OC)c1 (stereo not drawn) [Compound 20S] | 4.2 µM |  |  | 
22 | COc1cccc([C@@H](C)N[C@H](C)CCc2ccccc2)c1 [Compound 21D, (R,R)-N-(4-phenyl-2-butyl)-1-(3-methoxyphenyl)ethylamine] | 3 µM | 75% | 104% | 
23 | C[C@H](CCc1ccccc1)N[C@H](C)c1cccc2ccccc12 [Compound 21F, (R,R)-N-(4-phenyl-2-butyl)-1-(1-naphthyl)etbylamine] | 0.38 µM | 85% | 109% | 
24 | C[C@@H](CCc1ccccc1)N[C@H](C)c1cccc2ccccc12 [Compound 21G] | 1.1 µM | 63% | 88% | 
25 | C[C@H](CCc1cccc(C(F)(F)F)c1)N[C@@H](C)c1cccc2ccccc12 [Compound 25C, (S,R)-N-[4-(3-trifluoromethylphenyl)-2-butyl]-1-(1-naphthyl)ethylamine] | > 2 µM |  |  | 
26 | C[C@H](CCc1cccc(C(F)(F)F)c1)N[C@H](C)c1cccc2ccccc12 [Compound 25D, (R,R)-N-[4-(3-trifluoromethylphenyl)-2-butyl]-1-(1-naphthyl)ethylamine] | 0.019 µM |  |  | 
27 | COc1ccc([C@H](C)N[C@H](C)c2cccc3ccccc23)cc1C [Compound 25U] |  | 95% | 107% | 107%
28 | COc1ccc([C@H](C)N[C@@H](C)c2cccc3ccccc23)cc1C [Compound 25V] |  | 43% | 59% | 89%
29 | COc1ccc([C@@H](C)N[C@@H](C)c2cccc3ccccc23)cc1C [Compound 25W] |  | 42% | 69% | 95%
